# Measurements as given in patent US8372866B2, “2-aryl and 2-heteroaryl 4H-1-benzopyran-4-one-6-amidino derivatives, new pharmacological agents for the treatment of arthritis, cancer and related pain” (Rottapharm S.p.A., priority 2008, dated 2013).
# Structures can show the parent of a compound that is named as a salt.
# Experiments:
# [1] = tested on: mechanical hyperalgesia associated with STZ-induced diabetes; test: STZ-induced diabetes mechanical hyperalgesia, model of neuropathic pain (Randall-Selitto); format: in vivo, rat
# Experimental: Painful diabetic neuropathy is one of the most common complications of insulin-dependent diabetes in man; in particular, diabetes can be associated with neuropathic pain which fails to be treated by classical analgesics. Streptozotocin (STZ)-induced diabetes in the rat has been increasingly used as a model of painful diabetic neuropathy to assess the efficacies of potential analgesic agents (C. Courteix, Pain 1993, 53, 81-8). A representative compound of the invention was tested for efficacy in reducing mechanical hyperalgesia associated with STZ-induced diabetes in the rat, according to the experimental model as described by the literature. Diabetes was produced with the injection of a single dose (75 mg/Kg i.p.) of STZ. In the following four weeks after the induction of diabetes the clinical symptoms (weight, body and skin temperature, motility and hyperglycemia) progressively developed by the animals, are strictly monitored.
# After four weeks, the scores obtained in diabetic rats to various pain stimuli (in particular mechanical stimuli) were greater than those in normal rats, indicating hyperalgesia. The hyperalgesia induced by diabetes was evaluated using the Randall-Selitto method as above described, and quantitated using the analgesimeter. Also in this case, the difference in the mechanical pain threshold between the basal value (generally 230-250 g) and the one tolerated by the animals treated with the drug, is defined as mechanical hyperalgesia. The compound of the invention was administered i.p. (solution, Tween 80, 10% in saline) at different doses, and mechanical hyperalgesia was measured at the reported time, as maximum percent effect (MPE) which represents the difference (%) in pain threshold between the animals treated with the drug and the controls that received only the vehicle, compared with the weight borne by naïf non-diabetic controls. A 100% protection means that the diabetic animals treated with the compound can tolerate the same stimulus (weight) as the naïf non-diabetic animals. MPE higher than 100% means that the diabetic animal treated with the compound can tolerate stimuli (weight) higher than the control non-diabetic animals (hypoalgesia).
# In Table 4, the effect of a representative compound of formula (I), in the above described model of neuropathic pain, is compared with some known pharmacological standards used for the clinical treatment of this pathology. In particular, from the MPE data at 0.5 hrs, the doses yielding a protection of 50% (ED50) and 100% (ED100) have been calculated.
# [2] = biological target: T1, recombinant human aggrecanase 1 (ADAMTS-4) (Homo sapiens, UniProt O75173); test: InviLISA Aggrecanase activity assay, aggrecanase 1; format: biochemical; conditions: for inhibition at 10 µM: inhibitors tested at 10 μM final concentration
# T1 construct: ADAMTS-4 aminoacids F213-A579 with C-terminal tag; purchased Invitek GmbH, Berlin
# T1 sequence (O75173 213-579): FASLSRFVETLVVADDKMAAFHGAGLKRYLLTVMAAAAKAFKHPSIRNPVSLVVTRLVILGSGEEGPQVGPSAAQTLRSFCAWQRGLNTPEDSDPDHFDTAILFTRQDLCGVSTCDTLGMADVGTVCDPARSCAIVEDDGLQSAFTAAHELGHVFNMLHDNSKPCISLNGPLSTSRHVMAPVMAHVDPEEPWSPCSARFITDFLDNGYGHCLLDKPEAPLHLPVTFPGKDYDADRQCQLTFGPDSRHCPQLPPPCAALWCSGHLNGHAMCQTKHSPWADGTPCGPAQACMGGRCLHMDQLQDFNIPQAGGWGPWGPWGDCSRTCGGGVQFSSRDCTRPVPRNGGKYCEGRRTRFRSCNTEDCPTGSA
# Experimental: (§1) The InviLISA Aggrecanase activity assay (Invitek GmbH, Berlin) was used to screen and characterise aggrecanase inhibitors. The assay was carried out in two steps, according to Will et al. (Will H, Dettloff M, Bendzko P, Svenshnikov P, A Quantitative Assay for aggrecanase Activity; 2005, Journal of Biomolecular Techniques, 16 (4), 459-472). A recombinant fragment of human aggrecan interglobular domain (aggrecan-IGD; T331-G458) is first digested with aggrecanase. Proteolytic cleavage of the substrate releases an aggrecan peptide with the N-terminal sequence ARGSVIL (ARGSVIL-peptide), that was then quantified with two monoclonal anti-peptide antibodies (ELISA module). For precise calculation of product, ARGSVIL-peptide standard concentrations were run in parallel.
# (§2) 1) Proteolysis of aggrecan-IGD by aggrecanase. Aggrecan-IGD was incubated with standard recombinant human aggrecanase 1 (ADAMTS-4 aminoacids F213-A579 with C-terminal tag) or standard recombinant human aggrecanase 2 (ADAMTS-5 aminoacids S262-G625 with C-terminal tag) in the absence (total enzymatic activity) or presence (modulated enzymatic activity) of inhibitors to be tested. Enzymes were pre-incubated with the inhibitors or the appropriate concentration of diluent as control (DMSO 0.25% final concentration in proteolysis), at 4° C. for 30 min prior to assaying their activity. Five microliters of mix enzyme-inhibitor were added to the substrate (0.1 μM final concentration) in a total volume of 100 μL and incubated for 15 minutes at 37° C. The reaction was terminated with EDTA-containing buffer. The inhibitors were tested at 10 μM final concentration and compounds achieving ≧50% inhibitory effect were evaluated for IC50 calculation, in a range generally extended from 0.1 to 10 μM final concentration.
# (§3) 2) Aggrecan peptide ELISA. ARGSVIL-peptide standard, proteolytic digestion of Aggrecan-IGD with standard aggrecanases and test samples were incubated in microtiter wells pre-coated with anti-ARGSVIL-neoepitope antibody. ARGSVIL-peptide is bound to the coated antibody, while other components are removed by washing and aspiration. The bound ARGSVIL-peptide was detected with a second peroxidase-labelled antibody. Any excess of the conjugate was removed by washing and aspiration. The amount of peroxidase bound to different wells was determined in reactions with peroxidase substrate TMB. The reactions are stopped by addition of sulphuric acid solution and absorbance is read at 450 nm in a microtiter plate spectrophotometer.
# [3] = biological target: T2, recombinant human aggrecanase 2 (ADAMTS-5) (Homo sapiens, UniProt Q9UNA0); test: InviLISA Aggrecanase activity assay, aggrecanase 2; format: biochemical; conditions: for inhibition at 10 µM: inhibitors tested at 10 μM final concentration
# T2 construct: ADAMTS-5 aminoacids S262-G625 with C-terminal tag; purchased Invitek GmbH, Berlin
# T2 sequence (Q9UNA0 262-625): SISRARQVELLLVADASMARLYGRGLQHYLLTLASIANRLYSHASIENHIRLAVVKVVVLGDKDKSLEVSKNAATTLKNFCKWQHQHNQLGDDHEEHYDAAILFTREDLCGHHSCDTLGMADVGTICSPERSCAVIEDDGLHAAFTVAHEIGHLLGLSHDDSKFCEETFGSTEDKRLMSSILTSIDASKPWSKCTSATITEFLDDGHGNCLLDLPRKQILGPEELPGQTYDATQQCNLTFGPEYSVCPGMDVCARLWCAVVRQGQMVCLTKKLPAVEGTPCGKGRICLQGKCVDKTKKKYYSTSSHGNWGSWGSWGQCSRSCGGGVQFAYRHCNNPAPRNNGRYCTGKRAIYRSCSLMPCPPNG
# Experimental: as §1, §2, §3
# [4] = tested on: CFA-induced prolonged inflammation; test: CFA model of chronic inflammatory pain (Randall-Selitto); format: in vivo, rat
# [5] = 10 mg/Kg IP, NE = not effective
# [6] = 30 mg/Kg IP, NE = not effective
# [7] = 100 mg/Kg IP, NE = not effective
# [8] = 300 mg/Kg IP, NE = not effective
compound,measurement,setting,value
CN(C)CCC=C1c2ccccc2CCc2ccccc21 [Amitriptyline],MPE 0.5 hrs,"[1]; 3 mg/Kg IP, NE = not effective",44%
same,MPE 1.5 hrs,"[1]; 3 mg/Kg IP, NE = not effective",40%
same,MPE 0.5 hrs,[1]; [5],68%
same,MPE 1.5 hrs,[1]; [5],77%
same,MPE 0.5 hrs,[1]; [6],65%
same,MPE 1.5 hrs,[1]; [6],69%
same,MPE 3 hrs,[1]; [6],23%
same,ED50,"[1]; Rattus norvegicus, IP, calculated from the MPE data at 0.5 hrs, NC = not calculable, read-out: ED50 0.5 hrs",3.76 mg/kg
"CC(=N)Nc1ccc2oc(-c3ccc(-n4ccnc4)cc3)c(O)c(=O)c2c1 [Example 5, 2-[(4-imidazol-1-yl)-phenyl]-3-hydroxy-6-[(1-iminoethyl)amino]-4H-1-benzopyran-4-one hydrochloride]",inhibition at 10 µM,[2],30%
same,IC50,[3],0.87 µM
"N=C(CC1CC1)Nc1ccc2oc(-c3ccc(-n4ccnc4)cc3)c(O)c(=O)c2c1 [Example 6, 2-[(4-imidazol-1-yl)-phenyl]-3-hydroxy-6-[(1-iminoethyl-2-cyclopropyl)amino]-4H-1-benzopyran-4-one dihydrochloride monohydrate]",IC50,[2],1.61 µM
same,IC50,[3],0.2 µM
COCCC(=N)Nc1ccc2oc(-c3ccc(-n4ccnc4)cc3)c(O)c(=O)c2c1 [Example 7],inhibition at 10 µM,[2],31%
same,IC50,[3],2.4 µM
"CC(=N)Nc1ccc2oc(-c3cccc(-n4ccnc4)c3)c(O)c(=O)c2c1 [Example 8, 2-[(3-(imidazol-1-yl)-phenyl]-3-hydroxy-6-[(1-iminoethyl)amino]-4H-1-benzopyran-4-one dihydrochloride]",IC50,[3],10 µM
"CC(=N)Nc1ccc2oc(-c3ccc(S(C)(=O)=O)cc3)c(O)c(=O)c2c1 [Example 9, 2-(4-methansulfonylphenyl)-3-hydroxy-6-[(1-iminoethyl)amino]-4H-1-benzopyran-4-one hydrochloride]",inhibition at 10 µM,[2],20%
same,IC50,[3],11.5 µM
"CC(=N)Nc1ccc2oc(-c3ccc(O)c(O)c3)c(O)c(=O)c2c1 [Example 10, 2-(3,4-dihydroxyphenyl)-3-hydroxy-6-[(1-iminoethyl)amino]-4H-1-benzopyran-4-one hydrochloride]",IC50,[2],0.61 µM
same,IC50,[3],3.5 µM
"N=C(CC1CC1)Nc1ccc2oc(-c3ccc(O)cc3)c(O)c(=O)c2c1 [Example 11, 2-(4-hydroxyphenyl-3-hydroxy-6-[(1-iminoethyl-2-cyclopropyl)amino]-4H-1-benzopyran-4-one hydrochloride]",inhibition at 10 µM,[2],30%
same,inhibition at 10 µM,[3],40%
"COc1ccc(-c2oc3ccc(NC(C)=N)cc3c(=O)c2O)cc1 [Example 12, 2-(4-methoxyphenyl)-3-hydroxy-6-[(1-iminoethyl)amino]-4H-1-benzopyran-4-one hydrochloride monohydrate]",IC50,[2],2.7 µM
same,IC50,[3],1.12 µM
"COc1ccc(-c2oc3ccc(NC(=N)CO)cc3c(=O)c2O)cc1 [Example 13, 2-(4-methoxyphenyl)-3-hydroxy-6-[(1-iminoethyl-2-hydroxy)amino]-4H-1-benzopyran-4-one hydrochloride monohydrate]",inhibition at 10 µM,[2],0%
same,IC50,[3],2.8 µM
"COc1ccc(C(=N)Nc2ccc3oc(-c4ccc(OC)cc4)c(O)c(=O)c3c2)cc1 [Example 14, N-[2-(4-methoxyphenyl)-3-hydroxy-4H-1-benzopyran-4-one-6-yl]-4-methoxybenzene carboxiimidamide hydrochloride]",inhibition at 10 µM,[2],0%
same,IC50,[3],10 µM
"CC(=N)Nc1ccc2oc(-c3ccc4c(c3)CCO4)c(O)c(=O)c2c1 [Example 15, 2-(dihydrobenzofuran-5-yl)-3-hydroxy-6-[(1-iminoethyl)amino]-4H-1-benzopyran-4-one hydrochloride]",inhibition at 10 µM,[2],10%
same,IC50,[3],15 µM
"CC(=N)Nc1ccc2oc(-c3ccc4c(c3)OCO4)c(O)c(=O)c2c1 [Example 16, 2-(benzo[1,3]dioxol-5-yl)-3-hydroxy-6-[(1-iminoethyl)amino]-4H-1-benzopyran-4-one hydrochloride]",inhibition at 10 µM,[2],32%
same,IC50,[3],5 µM
N=C(CC1CC1)Nc1ccc2oc(-c3ccc4c(c3)OCO4)c(O)c(=O)c2c1 [Example 18],inhibition at 10 µM,[2],0%
same,IC50,[3],4.3 µM
"COCCC(=N)Nc1ccc2oc(-c3ccc4c(c3)OCO4)c(O)c(=O)c2c1 [Example 19, 2-(benzo[1,3]dioxol-5-yl)-3-hydroxy-6-[(1-iminopropyl-3-methoxy)amino]-4H-1-benzopyran-4-one hydrochloride]",inhibition at 10 µM,[2],0%
same,IC50,[3],8 µM
"CC(=N)Nc1ccc2oc(-c3ccc(O)nc3)c(O)c(=O)c2c1 [Example 21, 2-(6-hydroxypyridin-3-yl)-3-hydroxy-6-[(1-iminoethyl)amino]-4H-1-benzopyran-4-one hydrochloride]",inhibition at 10 µM,[3],20%
"CC(=N)Nc1ccc2oc(-c3ccc(OCc4ccccc4)cc3)c(O)c(=O)c2c1 [Example 22, 2-[(4-benzyloxy-phenyl]-3-hydroxy-6-[(1-iminoethyl)amino]-4H-1-benzopyran-4-one hydrochloride]",inhibition at 10 µM,[3],34%
NCC1(CC(=O)O)CCCCC1 [Gabapentin],MPE 0.5 hrs,[1]; [6],39%
same,MPE 1.5 hrs,[1]; [6],41%
same,MPE 0.5 hrs,[1]; [7],55%
same,MPE 1.5 hrs,[1]; [7],38%
same,MPE 0.5 hrs,[1]; [8],47%
same,MPE 1.5 hrs,[1]; [8],36%
"CN1C(C(=O)Nc2ccccn2)=C(O)c2ccccc2S1(=O)=O [Piroxicam, reference compound]",MPE 0.5 hrs,"[4]; 3 mg/Kg IP, NE = not effective",25%
same,MPE 1.5 hrs,"[4]; 3 mg/Kg IP, NE = not effective",40%
same,MPE 0.5 hrs,[4]; [5],46%
same,MPE 1.5 hrs,[4]; [5],73%
same,MPE 3 hrs,[4]; [5],62%
same,MPE 0.5 hrs,[4]; [6],102%
same,MPE 1.5 hrs,[4]; [6],111%
same,MPE 3 hrs,[4]; [6],54%
same,MPE 6 hrs,[4]; [6],24%
same,MPE 24 hrs,[4]; [6],38%
same,ED100 0.5 hrs,"[4]; IP, calculated from the MPE data at 0.5 hrs",34.33 mg/kg
same,ED50,"[4]; Rattus norvegicus, IP, calculated from the MPE data at 0.5 hrs, read-out: ED50 0.5 hrs",7.65 mg/kg
